One may read the EC50 as the concentration needed to bring the measured effect to its halfway point. What is called IC50 is the concentration needed to halve the response being measured.

This passage reports Activity, EC50 and IC50 results from ChEMBL document CHEMBL1255206, “Design and synthesis of a new class of malonyl-CoA decarboxylase inhibitors with anti-obesity and anti-diabetic activities” (Bioorg Med Chem Lett, 2010).

The subject of test [1] is Mus musculus. Briefly: Antidiabetic activity in C57B6N mouse assessed as decrease in beta-hydroxybutyrate at 10 mg/kg, po. Format: functional. The arrangement: scale not given: the % may be the effect or the level left.
Test [2] concerns Mus musculus. Briefly: Antidiabetic activity in C57B6N mouse assessed as blood glucose correction at 10 mg/kg, po. Format: functional.
Test [3] concerns the target T1, Malonyl-CoA decarboxylase, mitochondrial (Mus musculus, UniProt Q99J39).
T1 sequence (Q99J39 whole entry): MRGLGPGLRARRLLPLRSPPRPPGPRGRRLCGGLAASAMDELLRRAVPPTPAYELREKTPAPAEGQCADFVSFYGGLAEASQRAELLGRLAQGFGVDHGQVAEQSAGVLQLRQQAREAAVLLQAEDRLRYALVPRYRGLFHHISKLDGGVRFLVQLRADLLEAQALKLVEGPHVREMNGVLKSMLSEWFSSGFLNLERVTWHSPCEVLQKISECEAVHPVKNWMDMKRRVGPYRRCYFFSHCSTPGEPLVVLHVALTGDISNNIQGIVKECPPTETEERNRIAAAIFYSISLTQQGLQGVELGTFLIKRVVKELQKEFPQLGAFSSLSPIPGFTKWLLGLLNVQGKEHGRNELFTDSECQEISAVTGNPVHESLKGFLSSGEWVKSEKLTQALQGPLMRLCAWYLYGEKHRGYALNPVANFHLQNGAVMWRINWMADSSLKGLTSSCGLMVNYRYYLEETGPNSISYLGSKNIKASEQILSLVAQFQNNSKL
The experiment in a line: Inhibition of MCD in mouse hepatocytes by whole cell assay. In kind it is cell-based, Hepatocyte.

Test [4] has as its system Mus musculus. The experiment in a line: Antidiabetic activity in C57B6N mouse assessed as decrease in beta-hydroxybutyrate at 30 mg/kg, po. Format: functional. The arrangement: scale not given: the % may be the effect or the level left.
Test [5] has as its system Mus musculus. Briefly: Antidiabetic activity in C57B6N mouse assessed as decrease in beta-hydroxybutyrate at 3 mg/kg, po. In kind it is functional. Details: scale not given: the % may be the effect or the level left.
In test [6] the test system is Mus musculus. The experiment in a line: Antidiabetic activity in C57B6N mouse assessed as blood glucose correction at 30 mg/kg, po. In kind it is functional.
Test [7] relates to Mus musculus. Briefly: Antidiabetic activity in C57B6N mouse assessed as blood glucose correction at 3 mg/kg, po. In kind it is functional.
The target in test [8] is T2, Malonyl-CoA decarboxylase, mitochondrial (Homo sapiens, UniProt O95822).
T2 sequence (O95822 whole entry): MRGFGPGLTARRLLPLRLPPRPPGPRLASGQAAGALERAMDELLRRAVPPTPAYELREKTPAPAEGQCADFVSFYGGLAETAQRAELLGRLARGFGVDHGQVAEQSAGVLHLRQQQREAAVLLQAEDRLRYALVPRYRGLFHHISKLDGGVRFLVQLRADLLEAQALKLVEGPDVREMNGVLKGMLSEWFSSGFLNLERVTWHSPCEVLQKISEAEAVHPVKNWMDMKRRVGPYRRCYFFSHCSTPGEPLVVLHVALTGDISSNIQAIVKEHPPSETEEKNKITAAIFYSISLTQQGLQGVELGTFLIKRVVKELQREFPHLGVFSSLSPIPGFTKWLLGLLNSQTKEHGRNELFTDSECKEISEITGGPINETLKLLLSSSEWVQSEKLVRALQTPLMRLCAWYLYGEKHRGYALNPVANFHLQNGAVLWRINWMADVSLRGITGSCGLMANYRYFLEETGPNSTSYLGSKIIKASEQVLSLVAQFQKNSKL
Briefly: Inhibition of human MCD.

The subject of test [9] is Mus musculus. Briefly: Antiobesity activity in C57B6N mouse assessed as change in hyphalamic malonyl-coA level at 30 mg/kg, po. In kind it is functional.
For test [10], the system named is Mus musculus. The experiment in a line: Antiobesity activity in C57B6N mouse assessed as change in body weight at 100 mg/kg, po. In kind it is functional.
The test system of test [11] is Mus musculus. Briefly: Antiobesity activity in C57B6N mouse assessed as change in body weight at 30 mg/kg, po. Format: functional.
The test system of test [12] is Mus musculus. The experiment in a line: Antiobesity activity in C57B6N mouse assessed as change in hyphalamic malonyl-coA level at 100 mg/kg, po. In kind it is functional.
Test [13] has as its system Mus musculus. The experiment in a line: Antiobesity activity in C57B6N mouse assessed as change in chronic food intake at 30 mg/kg, po. Format: functional.
Test [14] deals with Mus musculus. Briefly: Antiobesity activity in C57B6N mouse assessed as change in chronic food intake at 100 mg/kg, po. In kind it is functional.

With `CS(=O)(=O)NC(=O)C1(c2ccccc2)CCN(c2ncc(C(O)(C(F)(F)F)C(F)(F)F)s2)CC1`, the Activity in the test on Mus musculus [1] is on record as 53%; in the test on Mus musculus [2], 53%; in the test on Mus musculus [4], 60%; with Mus musculus [5], -12%; in the test on Mus musculus [6] it was 48%; in the test on Mus musculus [7] it was 28%. Further, in [3], the EC50 amounted to 500 nM.

For the compound `Cc1cc(C(O)(C(F)(F)F)C(F)(F)F)ccc1C(Cc1cc[n+]([O-])cc1)c1ccc(OC(F)F)c(OC(F)F)c1` (configuration not stated), in test [8], half-maximal inhibition (IC50) was put at 13.3 nM.

The compound `OC(c1cnc(N2CCN(c3ccc(F)c(F)c3)CC2)s1)(C(F)(F)F)C(F)(F)F` came in with a concentration giving a half-maximal response (EC50) in test [3] of over 20000 nM.

In turn, `CNC(=O)C1(c2ccccc2)CCN(c2ncc(C(O)(C(F)(F)F)C(F)(F)F)s2)CC1` returned a concentration giving a half-maximal response (EC50) in test [3] of 640 nM.

For `OC(c1cnc(C2CCN(c3ccc(F)cc3)CC2)s1)(C(F)(F)F)C(F)(F)F`, the EC50 in test [3] was over 20000 nM.

Turning to `O=C(O)c1cccc(C2CCN(c3ncc(C(O)(C(F)(F)F)C(F)(F)F)s3)CC2)c1`, in test [3], the EC50 turned out to be 230 nM.

The compound `NC(=O)C1(c2cccc(C(=O)O)c2)CCN(c2ncc(C(O)(C(F)(F)F)C(F)(F)F)s2)CC1` displayed an EC50 in test [3] of 150 nM.

As to `NC(=O)c1cccc(C2CCN(c3ncc(C(O)(C(F)(F)F)C(F)(F)F)s3)CC2)c1`, the concentration giving a half-maximal response (EC50) in [3] was found to be 950 nM.

In the case of `CNC(=O)c1cccc(N2CCN(c3ncc(C(O)(C(F)(F)F)C(F)(F)F)s3)CC2)c1`, the Activity is given as 65% in the test with Mus musculus [9]; 65% in the test with Mus musculus [4]; 20% in the test with Mus musculus [10]; -2.1% in the test with Mus musculus [11]; 186% with Mus musculus [12]; -1.3% in the test on Mus musculus [13]. The results for the Activity with Mus musculus [6] and in the test on Mus musculus [14] were 30% and -12.4%, respectively. For the same compound, in test [3], the EC50 turned out to be 630 nM.

With `NC(=O)c1cccc(N2CCC(c3ncc(C(O)(C(F)(F)F)C(F)(F)F)s3)CC2)c1`, the midpoint of the response in test [3], the EC50, lay at 2000 nM.

Take `NC(=O)c1cccc(N2CCN(c3ncc(C(O)(C(F)(F)F)C(F)(F)F)s3)CC2)c1`: the Activity in the test with Mus musculus [9] is reported as 50%; in the test on Mus musculus [4], 78%; in the test with Mus musculus [10], -2.2%; in the test with Mus musculus [11], -3.3%; in the test with Mus musculus [12], 36%; with Mus musculus [13] it was 0.8%. Moreover, the Activity is listed as 32% in the test on Mus musculus [6] and 0.8% in the test on Mus musculus [14]. The compound further gave a concentration for a half-maximal effect (EC50) in test [3] of 1400 nM.

Regarding `NC(=O)C1(c2ccccc2)CCN(c2ncc(C(O)(C(F)(F)F)C(F)(F)F)s2)CC1`, the Activity with Mus musculus [9] was 29%; in the test with Mus musculus [4], 60%; in the test on Mus musculus [10] it was 14.3%; with Mus musculus [11], -5.5%; in the test with Mus musculus [12] it was 70%; with Mus musculus [13], -2.4%. Also, the values for the Activity in the test with Mus musculus [6] and with Mus musculus [14] were 41% and -5.7%, respectively. In addition, a half-maximal effect in [3] (EC50) was put at 1100 nM.
